Our source for the EC50 values is patent US8143288B2, “Inhibitors of HCV replication” (priority 2005, dated 2012).

The assay has as its system HCV 1b-377-neo replicon cells. Briefly: HCV replicon FRET assay. Conditions: Hepatitis C virus; HCV replicon; read-out: Activity (EC50). Type of assay: cell-based.
For the molecule `COC(=O)N1c2ccccc2C[C@H]1C(=O)N1CCC[C@H]1C(=O)Nc1ccc(/C=C/c2ccc(NC(=O)[C@@H]3CCCN3C(=O)[C@@H]3Cc4ccccc4N3C(=O)OC)cc2)cc1` [Example 189], the EC50 was in the range of 1000 to 10000 nM.
Then `CN(Cc1ccccc1)c1ccccc1C(=O)N1CCC[C@H]1C(=O)Nc1ccc(/C=C/c2ccc(NC(=O)[C@@H]3CCCN3C(=O)c3ccccc3N(C)Cc3ccccc3)cc2)cc1` [Example 162], with 1000 to 10000 nM.
Then `COc1ccc(Cl)cc1C(=O)N1CCC[C@H]1C(=O)Nc1ccc(/C=C/c2ccc(NC(=O)[C@@H]3CCCN3C(=O)c3cc(Cl)ccc3OC)cc2)cc1` [Example 138], with 1000 to 10000 nM; and `O=C(Nc1ccc(/C=C/c2ccc(NC(=O)[C@@H]3CCCN3C(=O)C3CCC3)cc2)cc1)[C@@H]1CCCN1C(=O)c1cccnc1` [Example 88], with 0.1 to 90 nM.
Then `CCOc1ccccc1CC(=O)N1CCC[C@H]1C(=O)Nc1ccc(/C=C/c2ccc(NC(=O)[C@@H]3CCCN3C(=O)Cc3ccccc3OCC)cc2)cc1` [Example 173], with 1000 to 10000 nM; and `Cc1onc(-c2ccccc2)c1C(=O)N1CCC[C@H]1C(=O)Nc1ccc(/C=C/c2ccc(NC(=O)[C@@H]3CCCN3C(=O)c3c(-c4ccccc4)noc3C)cc2)cc1` [Example 204], with 0.1 to 90 nM; and `O=C(Nc1ccc(/C=C/c2ccc(NC(=O)[C@@H]3CCCN3C(=O)c3cnccn3)cc2)cc1)[C@@H]1CCCN1C(=O)c1cnccn1` [Example 178], with 1000 to 10000 nM.
Consider `O=C(Nc1ccc(/C=C/c2ccc(NC(=O)[C@@H]3CCCN3C(=O)Cc3ccccc3)cc2)cc1)[C@@H]1CCCN1` [Example 252], for which the concentration for a half-maximal effect (EC50) is 1000 to 10000 nM.
As to `O=C(Nc1ccc(/C=C/c2ccc(NC(=O)[C@@H]3CCCN3C(=O)[C@@H]3CCCO3)cc2)cc1)[C@@H]1CCCN1C(=O)[C@@H]1CCCO1` [Example 111], the EC50 lay within 100 to 1000 nM.
For `O=C(Nc1ccc(/C=C/c2ccc(NC(=O)[C@@H]3CCCN3C(=O)c3ccccc3C3=CCCC3)cc2)cc1)[C@@H]1CCCN1C(=O)c1ccccc1C1=CCCC1` [Example 237], the EC50 lay within 1000 to 10000 nM.
With `Cc1ccccc1S(=O)(=O)N1CCC[C@H]1C(=O)Nc1ccc(/C=C/c2ccc(NC(=O)[C@@H]3CCCN3S(=O)(=O)c3ccccc3C)cc2)cc1` [Example 282], the 50% effective concentration (EC50) fell in the range of 1000 to 10000 nM.
Then `CCOc1cccc(-c2cccnc2C(=O)N2CCC[C@H]2C(=O)Nc2ccc(/C=C/c3ccc(NC(=O)[C@@H]4CCCN4C(=O)c4ncccc4-c4cccc(OCC)c4)cc3)cc2)c1` [Example 231], with 1000 to 10000 nM; and `CC(C)(C)OC(=O)n1cc(C(=O)N2CCC[C@H]2C(=O)Nc2ccc(/C=C/c3ccc(NC(=O)[C@@H]4CCCN4C(=O)c4cn(C(=O)OC(C)(C)C)c5ccccc45)cc3)cc2)c2ccccc21` [Example 208], with 1000 to 10000 nM.
`CC(=O)N1CCC[C@H]1C(=O)Nc1ccc(/C=C/c2ccc(NC(=O)[C@@H]3CCCN3C(=O)Cc3ccccc3)cc2)cc1` [Example 258]: the EC50 fell in the range of 0.1 to 90 nM.
For `COc1ccc2[nH]c(C)c(CC(=O)N3CCC[C@H]3C(=O)Nc3ccc(/C=C/c4ccc(NC(=O)[C@@H]5CCCN5C(=O)Cc5c(C)[nH]c6ccc(OC)cc56)cc4)cc3)c2c1` [Example 34], the EC50 lay in the range of 0.1 to 90 nM.
Then `O=C(Nc1ccc(/C=C/c2ccc(NC(=O)[C@@H]3CCCN3C(=O)c3c[nH]c4ccccc34)cc2)cc1)[C@@H]1CCCN1C(=O)c1c[nH]c2ccccc12` [Example 209], with 100 to 1000 nM.
Then `COCCOCC(=O)N1CCC[C@H]1C(=O)Nc1ccc(/C=C/c2ccc(NC(=O)[C@@H]3CCCN3C(=O)COCCOC)cc2)cc1` [Example 27], with 100 to 1000 nM; and `CCC(=O)c1ccccc1C(=O)N1CCC[C@H]1C(=O)Nc1ccc(/C=C/c2ccc(NC(=O)[C@@H]3CCCN3C(=O)c3ccccc3C(=O)CC)cc2)cc1` [Example 136], with 1000 to 10000 nM; and `CN(C)CC(=O)N1CCC[C@H]1C(=O)Nc1ccc(/C=C/c2ccc(NC(=O)[C@@H]3CCCN3C(=O)c3ccc(N(C)C)cc3)cc2)cc1` [Example 83], with 100 to 1000 nM.
For `COc1ccc(C)cc1C(=O)N1CCC[C@H]1C(=O)Nc1ccc(/C=C/c2ccc(NC(=O)[C@@H]3CCCN3C(=O)c3cc(C)ccc3OC)cc2)cc1` [Example 139], the concentration giving a half-maximal response (EC50) was in the range of 100 to 1000 nM.
For the molecule `O=C(Nc1ccc(/C=C/c2ccc(NC(=O)[C@@H]3Cc4ccccc4N3C(=O)OCc3ccccc3)cc2)cc1)[C@@H]1Cc2ccccc2N1C(=O)OCc1ccccc1` [Example 19], the EC50 is 0.1 to 90 nM.
With `CC(=O)N1CCC[C@H]1C(=O)Nc1ccc(/C=C/c2ccc(NC(=O)[C@@H]3CCCN3C(=O)Cc3ccccn3)cc2)cc1` [Example 49], the EC50 fell in the range of 0.1 to 90 nM.
Regarding `[N-]=[N+]=Nc1cccc(CC(=O)N2CCC[C@H]2C(=O)Nc2ccc(/C=C/c3ccc(NC(=O)[C@@H]4CCCN4C(=O)CCCC[C@@H]4SC[C@@H]5NC(=O)N[C@@H]54)cc3)cc2)c1` [Example 127], the EC50 fell in the range of 100 to 1000 nM.
Regarding `CCC(=O)N1CCC[C@H]1C(=O)Nc1ccc(/C=C/c2ccc(NC(=O)[C@@H]3CCCN3C(=O)c3cccnc3)cc2)cc1` [Example 90], the EC50 lay in the range of 0.1 to 90 nM.
With `O=C(NC1CCCC1)O[C@@H]1C[C@@H](C(=O)Nc2ccc(/C=C/c3ccc(NC(=O)[C@@H]4C[C@@H](O)CN4C(=O)OCc4ccccc4)cc3)cc2)N(C(=O)OCc2ccccc2)C1` [Example 248], the half-maximal effective concentration (EC50) was in the range of 1000 to 10000 nM.
Then `O=C(Nc1ccc(/C=C/c2ccc(NC(=O)[C@@H]3CCCN3C(=O)c3cc(F)ccc3F)cc2)cc1)[C@@H]1CCCN1C(=O)c1cc(F)ccc1F` [Example 108], with 100 to 1000 nM.
For the molecule `[N-]=[N+]=Nc1cccc(CC(=O)N2CCC[C@H]2C(=O)Nc2ccc(/C=C/c3ccc(NC(=O)[C@@H]4CCCN4C(=O)Cc4cccc(N=[N+]=[N-])c4)cc3)cc2)c1` [Example 128], the 50% effective concentration (EC50) lay in the range of 0.1 to 90 nM.
For the molecule `CCc1ccccc1C(=O)N1CCC[C@H]1C(=O)Nc1ccc(/C=C/c2ccc(NC(=O)[C@@H]3CCCN3C(=O)Cc3cccnc3)cc2)cc1` [Example 143], the EC50 was 100 to 1000 nM.
As for `CCO[C@@H]1C[C@@H](C(=O)Nc2ccc(/C=C/c3ccc(NC(=O)[C@@H]4C[C@H](OCC)CN4C(=O)OCc4ccccc4)cc3)cc2)N(C(=O)OCc2ccccc2)C1` [Example 16], the figure is 1000 to 10000 nM; as for `O=C(Nc1ccc(/C=C\c2ccc(NC(=O)[C@@H]3C[C@@H](O)CN3C(=O)OCc3ccccc3)cc2)cc1)[C@@H]1C[C@@H](O)CN1C(=O)OCc1ccccc1` [Example 8], 100 to 1000 nM.
As for `CC(C)CC(=O)N1CCC[C@H]1C(=O)Nc1ccc(/C=C/c2ccc(NC(=O)[C@@H]3CCCN3C(=O)CC(C)C)cc2)cc1` [Example 40], the figure is 100 to 1000 nM; as for `CSCC(=O)N1CCC[C@H]1C(=O)Nc1ccc(/C=C/c2ccc(NC(=O)[C@@H]3CCCN3C(=O)c3cccnc3)cc2)cc1` [Example 86], 0.1 to 90 nM.
As for `O=C(Nc1ccc(/C=C/c2ccc(NC(=O)[C@@H]3CCCN3C(=O)Cc3ccncc3)cc2)cc1)[C@@H]1CCCN1C(=O)Cc1ccncc1` [Example 43], the figure is 100 to 1000 nM; as for `CCCOc1ccccc1C(=O)N1C[C@@H](N(C)C)C[C@H]1C(=O)Nc1ccc(CCc2ccc(NC(=O)[C@@H]3C[C@H](N(C)C)CN3C(=O)c3ccccc3OCCC)cc2)cc1` [Example 224], 1000 to 10000 nM; as for `Cn1cnc(CC(=O)N2CCC[C@H]2C(=O)Nc2ccc(/C=C/c3ccc(NC(=O)[C@@H]4CCCN4C(=O)Cc4cn(C)cn4)cc3)cc2)c1` [Example 41], 0.1 to 90 nM.
Take `O=C(Nc1ccc(/C=C/c2ccc(NC(=O)[C@@H]3CCCN3C(=O)c3ncccc3-c3ccc(Cl)cc3)cc2)cc1)[C@@H]1CCCN1C(=O)c1ncccc1-c1ccc(Cl)cc1` [Example 230]: the EC50 was in the range of 100 to 1000 nM.
As for `Cc1noc(C)c1C(=O)N1CCC[C@H]1C(=O)Nc1ccc(/C=C/c2ccc(NC(=O)[C@@H]3CCCN3C(=O)c3c(C)noc3C)cc2)cc1` [Example 202], the figure is 100 to 1000 nM; as for `O=C(Nc1ccc(/C=C\c2ccc(NC(=O)[C@@H]3CCCN3C(=O)Cc3ccccc3)cc2)cc1)[C@@H]1CCCN1C(=O)Cc1ccccc1` [Example 5], 0.1 to 90 nM; as for `CCc1ccccc1C(=O)N1C[C@@H](N(C)C)C[C@H]1C(=O)Nc1ccc(/C=C/c2ccc(NC(=O)[C@@H]3C[C@H](N(C)C)CN3C(=O)c3ccccc3CC)cc2)cc1` [Example 228], 1000 to 10000 nM.
On to `O=C1N[C@H]2[C@H](CS[C@H]2CCCCC(=O)N2CCC[C@H]2C(=O)Nc2ccc(/C=C/c3ccc(NC(=O)[C@@H]4CCCN4C(=O)Cc4ccccc4)cc3)cc2)N1` [Example 109], for which the EC50 fell in the range of 0.1 to 90 nM.
With `CCn1nc(C)cc1C(=O)N1CCC[C@H]1C(=O)Nc1ccc(/C=C/c2ccc(NC(=O)[C@@H]3CCCN3C(=O)c3cc(C)nn3CC)cc2)cc1` [Example 155], the EC50 was in the range of 0.1 to 90 nM.
Turning to `CC(C)C(=O)N1CCC[C@H]1C(=O)Nc1ccc(/C=C/c2ccc(NC(=O)[C@@H]3CCCN3C(=O)c3cccnc3)cc2)cc1` [Example 89], the half-maximal effective concentration (EC50) was 0.1 to 90 nM.
Then `O=C(Nc1ccc(/C=C/c2ccc(NC(=O)[C@@H]3CCCN3C(=O)c3ccc(C(F)(F)F)nc3Cl)cc2)cc1)[C@@H]1CCCN1C(=O)c1ccc(C(F)(F)F)nc1Cl` [Example 195], with 1000 to 10000 nM; and `CCCOc1ccccc1C(=O)N1C[C@@H](N(C)C)C[C@H]1C(=O)Nc1ccc(/C=C/c2ccc(NC(=O)[C@@H]3C[C@H](N(C)C)CN3C(=O)c3ccccc3OCCC)cc2)cc1` [Example 227], with 1000 to 10000 nM; and `COCC(=O)N1CCC[C@H]1C(=O)Nc1ccc(/C=C/c2ccc(NC(=O)[C@@H]3CCCN3C(=O)Cc3cc(C)no3)cc2)cc1` [Example 95], with 0.1 to 90 nM.
As for `O=C(Nc1ccc(/C=C/c2ccc(NC(=O)[C@@H]3CCCN3C(=O)Cc3ccccc3OCc3ccccc3)cc2)cc1)[C@@H]1CCCN1C(=O)Cc1ccccc1OCc1ccccc1` [Example 167], the figure is 1000 to 10000 nM; as for `Cc1nnsc1C(=O)N1CCC[C@H]1C(=O)Nc1ccc(/C=C/c2ccc(NC(=O)[C@@H]3CCCN3C(=O)c3snnc3C)cc2)cc1` [Example 199], 0.1 to 90 nM.
For the molecule `Cn1ccnc1C(=O)N1CCC[C@H]1C(=O)Nc1ccc(/C=C/c2ccc(NC(=O)[C@@H]3CCCN3C(=O)c3nccn3C)cc2)cc1` [Example 64], the EC50 was in the range of 0.1 to 90 nM.
As for `O=C(Nc1ccc(/C=C/c2ccc(NC(=O)[C@@H]3CCCN3C(=O)c3ccncc3)cc2)cc1)[C@@H]1CCCN1C(=O)c1ccncc1` [Example 58], the figure is 0.1 to 90 nM.
